# Source: US8895579B2, “Heterotricyclic AMPA receptor antagonists for treatment of epilepsy, pain, and other neurological disorders and diseases” (Northwestern University, priority 2010, dated 2014)
# “Also recorded” adds a separate entry of the source.
# What was measured:
# GluK1-2b = biological target: T1, GluK1-2b (Rattus norvegicus, UniProt P22756); experiment: [3H]-KA radioligand binding, membranes of HEK293-T/17 cells expressing GluK1-2b; conditions: 10 nM [3H]-KA, 1 h at 4° C., read-out: [3H]KA bound as percent of total (specific) binding in absence of competing ligand
# T1 construct: myc; expressed in transfected cells; host or cells: HEK293-T/17 (CRL-11268)
# Procedure: Radioligand binding. HEK293-T/17 cells were transfected with 5 μg of iGluR cDNA in 100 mm^2 culture dishes. Two days post transfection, the plates were washed twice with ice-cold Dulbecco's phosphate-buffered saline (DPBS) and then incubated with 50 mM Tris (pH 7.4) and 1 mM EDTA for three minutes on ice. Cells were collected and centrifuged for five minutes at 800 g at room temperature. The cell pellet was homogenized in 50 mM Tris (pH 7.4) containing 320 mM sucrose (homogenization buffer, HB) on ice using a glass dounce homogenizer and centrifuged at 4° C. for 10 minutes at 800 g. The supernatant, containing the membrane fragments, was saved and the remaining pellet containing nuclei and unbroken cells was resuspended in HB. This homogenization process was repeated two more times and after collection of the final resulting supernatant, the remaining pellet was discarded. The collected supernatants were centrifuged at 4° C. for 20 minutes at 20000 g and the resulting supernatant was discarded leaving a membrane-containing pellet. […] Non-specific binding was determined as the amount of radioligand bound in the presence of a saturating concentration of glutamate (1 mM). Total binding was determined as the amount of radioligand bound in the absence of any competing ligands minus the non-specific binding. […]
# GluA4 = biological target: T2, GluA4 (Rattus norvegicus, UniProt P19493); experiment: [3H]-AMPA radioligand binding, membranes of HEK293-T/17 cells expressing GluA4; conditions: 100 μM
# T2 construct: expressed in transfected cells; host or cells: HEK293-T/17 (CRL-11268)
# Procedure: Radioligand binding. HEK293-T/17 cells were transfected with 5 μg of iGluR cDNA in 100 mm^2 culture dishes. Two days post transfection, the plates were washed twice with ice-cold Dulbecco's phosphate-buffered saline (DPBS) and then incubated with 50 mM Tris (pH 7.4) and 1 mM EDTA for three minutes on ice. Cells were collected and centrifuged for five minutes at 800 g at room temperature. The cell pellet was homogenized in 50 mM Tris (pH 7.4) containing 320 mM sucrose (homogenization buffer, HB) on ice using a glass dounce homogenizer and centrifuged at 4° C. for 10 minutes at 800 g. The supernatant, containing the membrane fragments, was saved and the remaining pellet containing nuclei and unbroken cells was resuspended in HB. This homogenization process was repeated two more times and after collection of the final resulting supernatant, the remaining pellet was discarded. The collected supernatants were centrifuged at 4° C. for 20 minutes at 20000 g and the resulting supernatant was discarded leaving a membrane-containing pellet. The pellets were resuspended in freshly prepared binding buffer containing (in mM) 50 Tris (pH 7.2), 2.5 CaCl2, 10% glycerol and 100 KSCN (for AMPA receptors) or exclusively 50 Tris (pH 7.4) (for kainate receptors). Membrane protein (50-100 μg) was combined with radiolabeled ligand (10 nM [^3H]-KA or 20 nM [^3H]-AMPA for kainate receptor and AMPA receptor binding, respectively), alone or with 100 μM of IKM-159, and then incubated for 1 h at 4° C. Non-specific binding was determined as the amount of radioligand bound in the presence of a saturating concentration of glutamate (1 mM). Total binding was determined as the amount of radioligand bound in the absence of any competing ligands minus the non-specific binding. […] Data were presented as a percentage of the total binding. All experimental conditions were performed in duplicate in each assay and then averaged for each trial.
# mice = conditions: Ikoma et al., 2008; Oikawa et al., 2009 and unpublished observations; cited from earlier work
# [1] = biological target: T3, homomeric GluA1 AMPA receptor (Rattus norvegicus, UniProt P19490); experiment: Whole-cell patch clamp of recombinant GluA1 receptors in HEK293-T/17 cells; type: cell-based; conditions: 30 μM; 10 mM glutamate
# T3 construct: expressed in transfected cells; host or cells: HEK293-T/17 (CRL-11268)
# Procedure: Cell Culture and Transfection. Human embryonic kidney cells expressing T-antigen, clone 17 (HEK293-T/17) (CRL-11268) were cultured at 37° C. with 5% CO2 in DMEM, including 100 μg/mL penicillin, 100 μg/mL streptomycin, and 10% heat-inactivated fetal bovine serum. Cells were split twice per week. For transfection, HEK293-T/17 cells were plated at 3×10^4 cells/cm^2 for pharmacology experiments and 5×10^3 cells/cm^2 for physiology experiments in fresh medium 24 h prior to transfection. Cells were transfected with AMPA or KA receptor plasmid cDNAs using Mirus Trans-IT transfection reagent (Minus Bio Corporation, Madison, Wis.) at a ratio of 1 μg cDNA: 3 μL Trans-1T reagent and maintained in transfection medium overnight followed by a media change the next day. Transfected cells were maintained in this medium until the experiment was conducted (48-72 h total post transfection).
# Electrophysiology. For analysis of recombinant receptors, HEK293-T/17 cells were co-transfected with 0.2 μg of iGluR cDNA and 0.05 μg of eGFP. For heterologous GluA1/GluA2 receptors, the GluA1:GluA2 cDNA ratio was 1:6. Two to three days post-transfection, eGFP-expressing cells were lifted from the cover slip and voltage clamped in whole cell mode. […]
# [2] = biological target: T4, kainate receptor EPSCs, CA3 pyramidal neurons (Mus musculus, UniProt P39087+Q61626+Q8BMF5); experiment: Kainate receptor EPSCs at mossy fiber-CA3 synapses, acute hippocampal slices; type: cell-based; conditions: 20 μM
# T4 construct: whole-cell voltage clamp recording from mouse acute brain slices; from tissue; host or cells: acute hippocampal slices, P15-21 C57Bl/6 mice, CA3 pyramidal neurons
# Procedure: For recordings from acute hippocampal slices, brains from P15-21 C57Bl/6 mice were sliced transversely (350 μm thickness) in a sucrose slicing solution containing (in mM) 85 NACl, 2.5 KCl, 1.25 NaH2PO4, 25 NaHCO3, 25 glucose, 75 sucrose, 0.5 CaCl2, 4 MgCl2, 0.5 Na ascorbate, 10 μM DL-APV and 100 μM kynurenic acid (pH 7.3). After slicing, the solution was exchanged with an incubation solution containing (in mM) 125 NaCl, 2.4 KCl, 1.2 NaH2PO4, 25 NaHCO3, 25 glucose: 1 CaCl2, 2 MgCl2, 0.5 Na ascorbate, 10 μM DL-APV and 100 μM kynurenic acid (pH 7.3) that was bubbled continuously with CO2-balanced O2 (carbogen). […] Recordings in voltage clamp mode used the CsF/CsCl internal solution and carbogenated external recording solution containing (in mM) 120 NaCl, 2.4 KCl, 2 MgCl2, 1 CaCl2, 25 NaHCO3, 1.2 NaH2PO4, 25 glucose, 10 μM bicuculline methiodide, 50 μM PTX and 50 μM D-APV (pH 7.3). […] NMDA EPSCs were validated by addition of D-APV (50 μM) at the end of each recording. […] IKM compounds were applied for 10 minutes and changes in the peak amplitudes of excitatory post-synaptic currents (EPSCs) and paired-pulse ratios were analyzed during the last two minutes of drug application. EPSC charge transfer, AP frequency, paired-pulse ratio and EPSC peak amplitude were analyzed with Mini-Analysis v6.03 (Synaptosoft, Decatur, Ga.) and Clampfit v10.0 (MDS, Sunnyvale, Calif.) software.
# T2 sequence (P19493 21-902 isoform P19493-2 limits assumed): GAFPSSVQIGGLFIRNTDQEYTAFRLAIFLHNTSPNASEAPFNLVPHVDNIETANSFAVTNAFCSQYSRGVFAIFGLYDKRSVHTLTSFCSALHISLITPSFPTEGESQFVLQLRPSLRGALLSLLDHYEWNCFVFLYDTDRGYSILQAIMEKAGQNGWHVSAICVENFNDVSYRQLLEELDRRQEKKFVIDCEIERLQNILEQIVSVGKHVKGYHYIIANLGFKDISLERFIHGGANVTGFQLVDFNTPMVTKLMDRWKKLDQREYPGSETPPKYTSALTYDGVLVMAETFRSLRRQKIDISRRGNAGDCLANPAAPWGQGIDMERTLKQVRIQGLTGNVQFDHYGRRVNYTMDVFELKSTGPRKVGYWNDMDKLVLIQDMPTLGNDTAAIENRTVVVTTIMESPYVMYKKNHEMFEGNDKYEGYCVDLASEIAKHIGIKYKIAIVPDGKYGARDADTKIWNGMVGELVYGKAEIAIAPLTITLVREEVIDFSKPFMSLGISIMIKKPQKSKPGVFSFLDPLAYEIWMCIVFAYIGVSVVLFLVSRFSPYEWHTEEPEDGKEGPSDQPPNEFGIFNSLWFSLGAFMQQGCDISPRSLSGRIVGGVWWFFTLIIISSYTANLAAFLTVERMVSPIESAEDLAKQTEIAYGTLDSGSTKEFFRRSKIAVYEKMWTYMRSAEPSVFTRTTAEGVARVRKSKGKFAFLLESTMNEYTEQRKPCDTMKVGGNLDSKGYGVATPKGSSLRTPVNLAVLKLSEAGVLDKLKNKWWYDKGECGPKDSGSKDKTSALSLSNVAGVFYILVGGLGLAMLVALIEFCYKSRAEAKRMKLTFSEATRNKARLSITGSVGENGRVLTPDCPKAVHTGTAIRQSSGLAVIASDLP
# T4 sequence (P39087 32-908): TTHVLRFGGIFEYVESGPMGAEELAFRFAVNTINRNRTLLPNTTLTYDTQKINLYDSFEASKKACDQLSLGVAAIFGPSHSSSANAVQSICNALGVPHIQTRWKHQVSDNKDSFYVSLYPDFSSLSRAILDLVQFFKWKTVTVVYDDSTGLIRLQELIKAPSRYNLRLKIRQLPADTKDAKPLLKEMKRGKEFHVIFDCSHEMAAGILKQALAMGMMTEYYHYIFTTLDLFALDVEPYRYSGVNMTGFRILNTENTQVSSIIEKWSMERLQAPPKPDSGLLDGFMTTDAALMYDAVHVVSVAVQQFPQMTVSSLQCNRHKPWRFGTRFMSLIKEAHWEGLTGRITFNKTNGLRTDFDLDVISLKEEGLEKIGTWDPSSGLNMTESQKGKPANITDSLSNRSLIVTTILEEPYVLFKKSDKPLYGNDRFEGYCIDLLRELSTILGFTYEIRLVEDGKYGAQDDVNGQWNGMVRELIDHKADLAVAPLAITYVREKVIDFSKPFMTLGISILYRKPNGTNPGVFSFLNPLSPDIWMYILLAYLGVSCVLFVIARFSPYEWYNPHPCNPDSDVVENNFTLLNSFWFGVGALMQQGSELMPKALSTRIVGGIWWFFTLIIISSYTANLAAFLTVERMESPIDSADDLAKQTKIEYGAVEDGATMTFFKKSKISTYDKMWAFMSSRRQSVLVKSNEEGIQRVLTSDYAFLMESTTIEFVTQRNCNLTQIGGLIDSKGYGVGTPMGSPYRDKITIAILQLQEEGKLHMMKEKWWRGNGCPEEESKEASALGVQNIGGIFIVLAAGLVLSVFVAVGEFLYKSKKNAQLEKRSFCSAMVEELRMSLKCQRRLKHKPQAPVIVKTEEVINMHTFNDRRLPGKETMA
# T4 sequence (Q8BMF5 21-956): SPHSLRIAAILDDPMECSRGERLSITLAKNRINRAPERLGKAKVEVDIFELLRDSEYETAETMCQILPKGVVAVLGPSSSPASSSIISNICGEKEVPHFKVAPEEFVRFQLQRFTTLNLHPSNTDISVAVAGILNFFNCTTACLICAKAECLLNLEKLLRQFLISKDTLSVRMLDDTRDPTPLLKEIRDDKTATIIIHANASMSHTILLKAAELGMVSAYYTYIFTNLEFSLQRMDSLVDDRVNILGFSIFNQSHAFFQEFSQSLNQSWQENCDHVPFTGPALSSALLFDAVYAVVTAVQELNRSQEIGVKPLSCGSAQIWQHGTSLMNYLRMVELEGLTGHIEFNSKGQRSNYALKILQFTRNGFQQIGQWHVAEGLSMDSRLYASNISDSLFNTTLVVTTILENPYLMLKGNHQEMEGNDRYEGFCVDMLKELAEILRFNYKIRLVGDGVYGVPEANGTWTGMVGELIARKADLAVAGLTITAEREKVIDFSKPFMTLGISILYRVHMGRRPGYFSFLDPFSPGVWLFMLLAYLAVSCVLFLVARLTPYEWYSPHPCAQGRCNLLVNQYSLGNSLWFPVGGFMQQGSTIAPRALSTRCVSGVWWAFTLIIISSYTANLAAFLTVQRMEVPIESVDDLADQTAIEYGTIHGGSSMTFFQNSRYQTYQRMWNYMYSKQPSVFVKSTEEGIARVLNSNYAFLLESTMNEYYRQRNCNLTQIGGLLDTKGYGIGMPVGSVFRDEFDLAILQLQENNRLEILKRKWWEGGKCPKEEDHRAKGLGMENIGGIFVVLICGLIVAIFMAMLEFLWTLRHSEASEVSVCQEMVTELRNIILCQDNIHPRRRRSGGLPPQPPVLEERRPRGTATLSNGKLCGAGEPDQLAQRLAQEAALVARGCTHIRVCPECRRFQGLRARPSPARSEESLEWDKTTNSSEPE
# T4 sequence (Q61626 15-979): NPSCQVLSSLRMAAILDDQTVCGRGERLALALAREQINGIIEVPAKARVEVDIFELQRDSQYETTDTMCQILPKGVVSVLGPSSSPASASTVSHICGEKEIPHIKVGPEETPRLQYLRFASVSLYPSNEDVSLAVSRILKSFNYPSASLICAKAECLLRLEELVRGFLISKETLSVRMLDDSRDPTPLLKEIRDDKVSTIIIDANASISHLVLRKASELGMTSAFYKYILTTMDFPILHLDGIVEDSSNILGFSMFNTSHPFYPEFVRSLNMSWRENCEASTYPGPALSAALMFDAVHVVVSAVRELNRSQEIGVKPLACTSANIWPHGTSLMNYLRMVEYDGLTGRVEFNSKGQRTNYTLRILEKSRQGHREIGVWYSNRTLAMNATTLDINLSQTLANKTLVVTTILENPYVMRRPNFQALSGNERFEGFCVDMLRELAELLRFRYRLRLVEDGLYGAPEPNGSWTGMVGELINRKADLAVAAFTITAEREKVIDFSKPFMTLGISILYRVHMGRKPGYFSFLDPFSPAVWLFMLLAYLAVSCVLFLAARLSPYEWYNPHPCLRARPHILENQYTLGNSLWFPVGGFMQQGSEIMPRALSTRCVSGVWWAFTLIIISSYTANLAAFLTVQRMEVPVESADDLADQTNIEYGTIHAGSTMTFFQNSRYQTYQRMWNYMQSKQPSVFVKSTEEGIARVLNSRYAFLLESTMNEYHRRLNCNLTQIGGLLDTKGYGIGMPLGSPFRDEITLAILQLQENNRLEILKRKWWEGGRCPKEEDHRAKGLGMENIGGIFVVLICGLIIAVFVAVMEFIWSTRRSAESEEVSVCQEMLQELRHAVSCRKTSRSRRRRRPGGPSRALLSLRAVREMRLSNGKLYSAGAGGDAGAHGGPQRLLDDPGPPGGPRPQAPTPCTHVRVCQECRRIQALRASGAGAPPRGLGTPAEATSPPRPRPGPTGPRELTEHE
# T3 sequence (P19490 19-907 isoform P19490-2 limits assumed): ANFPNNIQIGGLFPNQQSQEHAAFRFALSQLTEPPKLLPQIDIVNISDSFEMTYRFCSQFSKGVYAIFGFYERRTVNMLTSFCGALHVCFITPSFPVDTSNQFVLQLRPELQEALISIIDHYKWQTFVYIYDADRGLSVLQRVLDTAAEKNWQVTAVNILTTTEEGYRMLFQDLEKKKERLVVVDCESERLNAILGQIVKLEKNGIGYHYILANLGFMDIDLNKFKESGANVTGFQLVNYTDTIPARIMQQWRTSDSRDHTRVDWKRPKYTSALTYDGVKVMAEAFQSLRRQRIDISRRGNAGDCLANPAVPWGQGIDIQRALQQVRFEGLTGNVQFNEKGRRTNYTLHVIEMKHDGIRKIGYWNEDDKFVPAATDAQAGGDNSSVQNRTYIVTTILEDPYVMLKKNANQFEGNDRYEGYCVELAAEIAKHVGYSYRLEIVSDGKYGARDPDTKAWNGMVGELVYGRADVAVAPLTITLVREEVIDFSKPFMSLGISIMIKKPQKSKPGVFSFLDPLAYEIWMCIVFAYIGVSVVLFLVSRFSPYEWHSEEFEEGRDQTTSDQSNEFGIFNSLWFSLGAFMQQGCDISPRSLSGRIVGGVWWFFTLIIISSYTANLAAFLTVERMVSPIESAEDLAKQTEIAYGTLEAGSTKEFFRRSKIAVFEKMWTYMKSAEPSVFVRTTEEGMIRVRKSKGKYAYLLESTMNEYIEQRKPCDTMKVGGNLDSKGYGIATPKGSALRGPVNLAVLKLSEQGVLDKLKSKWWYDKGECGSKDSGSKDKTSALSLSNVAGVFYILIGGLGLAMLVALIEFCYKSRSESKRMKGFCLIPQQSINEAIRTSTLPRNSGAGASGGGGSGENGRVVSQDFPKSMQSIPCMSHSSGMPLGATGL
structure (smiles),measurement,setting,value
O=C(O)C[C@@]12O[C@H]3C=CCN[C@H]3C1CN[C@H]2C(=O)O (stereo partly shown) [IKM-159],activity at 100 µM,GluK1-2b,105 ± 5%
same,[3H]AMPA bound as percent of total (specific) binding in absence of competing ligand,"GluA4; 20 nM [3H]-AMPA, 1 h at 4° C.",90±6%
same,bound radioligand ([3H]-AMPA),GluA4; 1 h pre-incubation prior to addition of the radioligand,100%
same,bound radioligand ([3H]-AMPA),GluA4; 2 h incubation with [3H]-AMPA,113%
same,behavioral phenotype in mice,mice,hypoactive phenotypes similar to cataleptic states; also recorded: marked hypoactivity and immobility
same,GluA1 peak amplitude as percent of basal (glutamate alone) peak,[1],92±3%
same,effect on kainate receptor EPSC peak amplitude,[2],did not alter the mean amplitude; also recorded: did not alter the typical run-down in amplitude
